The assay addresses T1, sodium-proton exchanger of subtype 3 (NHE3) (Homo sapiens, UniProt P48764).
T1 construct: expressed in transfected cells
T1 sequence (P48764 26-834): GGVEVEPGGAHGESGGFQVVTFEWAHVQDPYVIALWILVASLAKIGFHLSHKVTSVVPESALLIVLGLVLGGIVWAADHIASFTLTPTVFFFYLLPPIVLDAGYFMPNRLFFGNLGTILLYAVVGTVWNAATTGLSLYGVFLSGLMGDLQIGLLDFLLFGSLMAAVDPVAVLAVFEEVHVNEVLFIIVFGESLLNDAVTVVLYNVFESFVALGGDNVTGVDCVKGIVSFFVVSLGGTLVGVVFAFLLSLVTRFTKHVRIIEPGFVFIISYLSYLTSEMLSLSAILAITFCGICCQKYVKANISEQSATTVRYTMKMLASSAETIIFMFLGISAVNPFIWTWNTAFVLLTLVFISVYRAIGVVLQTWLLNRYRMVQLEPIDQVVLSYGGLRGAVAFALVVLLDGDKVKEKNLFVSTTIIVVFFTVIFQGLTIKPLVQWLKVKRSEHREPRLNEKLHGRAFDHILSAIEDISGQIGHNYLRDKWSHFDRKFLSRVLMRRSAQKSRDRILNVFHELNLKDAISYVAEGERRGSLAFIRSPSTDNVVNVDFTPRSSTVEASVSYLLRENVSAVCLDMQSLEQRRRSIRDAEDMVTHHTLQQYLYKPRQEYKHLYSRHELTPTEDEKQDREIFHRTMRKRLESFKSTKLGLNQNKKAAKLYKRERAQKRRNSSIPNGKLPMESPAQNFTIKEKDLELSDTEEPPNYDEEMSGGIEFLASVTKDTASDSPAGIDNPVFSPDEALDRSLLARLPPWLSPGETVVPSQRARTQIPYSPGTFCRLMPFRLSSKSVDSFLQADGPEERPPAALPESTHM
Put plainly: Recovery of intracellular pH (pHi) after acidification in LAP1 cells stably expressing NHE3 (BCECF fluorescence, FLIPR). The class given is cell-based. To be noted: LAP1 cells stably expressing NHE3; pH recovery after acidification; range 1 is % inhibition at 10 μM; read-out: Activity range (inhibitory effect on NHE3).

Each structure is given as a SMILES string.

Consider `NC(=O)c1ccccc1O[C@H]1c2ccccc2CC[C@@H]1N1CCC[C@H](N)C1` (racemic) [Example 373, 2-[rac-trans-(1,2)-2-((S)-3-aminopiperidin-1-yl)-1,2,3,4-tetrahydronaphthalen-1-yloxy]benzamide], for which the IC50 is below 1000 nM. As to `CN1CCN([C@H]2Cc3c(Cl)cc(Cl)cc3[C@@H]2Oc2ccc(S(C)(=O)=O)cc2)CC1` [Example 306, 1-[trans-(1S,2S)-4,6-dichloro-1-(4-methanesulfonylphenoxy)indan-2-yl]-4-methylpiperazine], the IC50 was in the range of 1000 to 10000 nM. Still for that read-out and setting: the figure for `NS(=O)(=O)c1ccc(O[C@@H]2c3ccccc3C[C@H]2NC2CCCCCC2)c(F)c1` (racemic) [Example 713, 4-(rac-trans-(1,2)-2-Cycloheptylamino-indan-1-yloxy)-3-fluoro-benzenesulfonamide] is 1000 to 10000 nM. Same read-out and setting: as for `N[C@@H]1CCCN([C@@H]2Cc3ccccc3[C@H]2Oc2ccnc3ccccc23)C1` (racemic) [Example 88, (R)-1-[rac-trans-(1,2)-1-(quinolin-4-yloxy)indan-2-yl]piperidin-3-ylamine], the figure is 1000 to 10000 nM.

As to `N[C@H]1CCCN([C@@H]2Cc3ccccc3[C@H]2Oc2ccc(N3CCNCC3)cc2)C1` (racemic) [Example 185, (S)-1-[rac-trans-(1,2)-1-(4-piperazin-1-ylphenoxy)indan-2-yl]piperidin-3-ylamine], the IC50 was 1000 to 10000 nM. The same measure, in the same setting: as for `CCN(CC)[C@@H]1Cc2ccccc2[C@H]1Oc1cccc(NC(C)=O)c1` (racemic) [Example 637, N-[3-(rac-trans-(1,2)-2-diethylaminoindan-1-yloxy)phenyl]acetamide], the figure is 1000 to 10000 nM.

Consider `Brc1ccc(O[C@@H]2c3ccccc3C[C@H]2N2C[C@H]3CNC[C@H]3C2)c(-c2cc[nH]n2)c1` (racemic) [Example 20, 2-{rac-trans-(1,2)-1-[4-bromo-2-(1H-pyrazol-3-yl)phenoxy]indan-2-yl}octahydropyrrolo[3,4-c]pyrrole], for which the IC50 lay within 1000 to 10000 nM. Still for that read-out and setting: as for `CC(C)(C)N[C@H]1Cc2ccccc2[C@@H]1Oc1ccc(S(C)(=O)=O)cc1` (racemic) [Example 701, tert-butyl-[1-(4-methanesulfonylphenoxy)indan-2-yl]amine], the figure is 1000 to 10000 nM.

On to `CC(=O)Nc1cccc(O[C@H]2c3ccccc3C[C@@H]2N2CCC[C@@H](N(C)C)C2)c1` [Example 692, N-{3-[trans-(1S,2S)-2-((R)-3-dimethylaminopiperidin-1-yl)indan-1-yloxy]phenyl}acetamide], for which the IC50 is below 1000 nM. For the molecule `N[C@@H]1CCCN([C@H]2CCc3ccccc3[C@@H]2Oc2cccc3ncccc23)C1` (racemic) [Example 89, (R)-1-[rac-trans-(1,2)-1-(quinolin-5-yloxy)-1,2,3,4-tetrahydronaphthalen-2-yl]piperidin-3-ylamine], the IC50 is 1000 to 10000 nM. Consider `C[C@@H]1CN([C@H]2Cc3c(Cl)cc(Cl)cc3[C@@H]2Oc2ccc(S(C)(=O)=O)cc2)CCN1` [Example 101, (R)-1-[trans-(1S,2S)-4,6-dichloro-1-(4-methanesulfonylphenoxy)indan-2-yl]-3-methylpiperazine], for which the IC50 is below 1000 nM. Still for that read-out and setting: the figure for `O=S1(=O)CCCN1c1cccc(O[C@H]2c3cc(Cl)cc(Cl)c3C[C@@H]2N2CC[C@@H](O)C2)c1` [Example 123, (R)-1-{trans-(1S,2S)-4,6-dichloro-1-[3-(1,1-dioxo-1lambda6-isothiazolidin-2-yl)phenoxy]indan-2-yl}pyrrolidin-3-ol] is 1000 to 10000 nM. Still for that read-out and setting: the figure for `NS(=O)(=O)c1ccc(O[C@@H]2c3ccccc3C[C@H]2NC2CC2)c(F)c1` (racemic) [Example 703, 4-(rac-trans-(1,2)-2-Cyclopropylamino-indan-1-yloxy)-3-fluoro-benzenesulfonamide] is 1000 to 10000 nM; for `CCN(CC)[C@@H]1Cc2ccccc2[C@H]1Oc1ccc(CCOC)cc1` (racemic) [Example 628, Diethyl-{rac-trans-(1,2)-1-[4-(2-methoxyethyl)phenoxy]indan-2-yl}amine] it is 1000 to 10000 nM.

Take `O=S(=O)(c1ccc(O[C@H]2c3cc(Cl)cc(Cl)c3C[C@@H]2N2CC[C@@H](O)C2)cc1)N1CCOCC1` [Example 744, (R)-1-{trans-(1S,2S)-4,6-Dichloro-1-[4-(morpholine-4-sulfonyl)-phenoxy]-indan-2-yl}-pyrrolidin-3-ol]: the IC50 was 1000 to 10000 nM. For the molecule `COc1ccc(C)cc1O[C@H]1c2ccccc2CC[C@@H]1N1CCC[C@@H](N)C1` (racemic) [Example 46, (R)-1-[rac-trans-(1,2)-1-(2-methoxy-5-methylphenoxy)-1,2,3,4-tetrahydronaphthalen-2-yl]piperidin-3-ylamine], the inhibition at 10 µM fell in the range of 20 to 50%.

`NS(=O)(=O)c1ccc(O[C@H]2c3cc(Cl)cc(Cl)c3C[C@@H]2N2CCS(=O)(=O)CC2)cc1` [Example 483, 4-[(1S,2S)-4,6-dichloro-2-(1,1-dioxo-1lambda6-thiomorpholin-4-yl)indan-1-yloxy]benzenesulfonamide]: the IC50 was below 1000 nM. Take `NC(=O)c1cccc(O[C@@H]2c3ccccc3C[C@H]2N2CCC[C@H](N)C2)c1` (racemic) [Example 413, 3-[rac-trans-(1,2)-2-((S)-3-aminopiperidin-1-yl)indan-1-yloxy]benzamide]: the IC50 fell in the range of 1000 to 10000 nM. Take `CS(=O)(=O)c1ccc(O[C@H]2c3c(Cl)cc(Cl)cc3C[C@@H]2N2CCNCC2)cc1` (racemic) [Example 287, 1-[rac-trans-(1,2)-5,7-dichloro-1-(4-methanesulfonylphenoxy)indan-2-yl]piperazine]: the IC50 is below 1000 nM. Same read-out and setting: as for `CN1CCN(c2ccc(Cl)c(O[C@H]3c4cc(Cl)cc(F)c4C[C@@H]3N3CC[C@@H](O)C3)c2)C1=O` [Example 340, 1-{4-chloro-3-[(1S,2S)-6-chloro-4-fluoro-2-((R)-3-hydroxypyrrolidin-1-yl)indan-1-yloxy]phenyl}-3-methylimidazolidin-2-one], the figure is below 1000 nM; as for `CS(=O)(=O)c1ccc(O[C@H]2c3ccccc3C[C@@H]2N2CCCC2)cc1` (racemic) [Example 273, 1-[rac-trans-(1,2)-1-(4-methanesulfonylphenoxy)indan-2-yl]pyrrolidine], below 1000 nM.

`N#CCc1cccc(O[C@H]2c3ccccc3CC[C@@H]2N2CCC[C@@H](N)C2)c1` (racemic) [Example 230, {3-[rac-trans-(1,2)-2-((R)-3-aminopiperidin-1-yl)-1,2,3,4-tetrahydronaphthalen-1-yloxy]phenyl}acetonitrile]: the inhibition at 10 µM lay in the range of 20 to 50%.

Turning to `Cc1nnc(C)n1-c1ccc(O[C@H]2c3cc(Cl)c(Cl)cc3C[C@@H]2N2CCCC2)cc1` (racemic) [Example 498, 4-[4-(rac-trans-(1,2)-5,6-dichloro-2-pyrrolidin-1-ylindan-1-yloxy)phenyl]-3,5-dimethyl-4H-[1,2,4]triazole], the inhibition at 10 µM was in the range of 20 to 50%. As for `Clc1cnccc1O[C@H]1c2ccccc2C[C@@H]1N1CCCC1` (racemic) [Example 441, 3-chloro-4-(2-pyrrolidin-1-ylindan-1-yloxy)pyridine], the IC50 is 1000 to 10000 nM. On the same count and under the same terms, as for `CN1CC(=O)N(c2ccc(Cl)c(O[C@H]3c4cc(Cl)cc(Cl)c4C[C@@H]3N3CC[C@@H](O)C3)c2)C1=O` [Example 430, 3-{4-chloro-3-[(1S,2S)-4,6-dichloro-2-((R)-3-hydroxypyrrolidin-1-yl)indan-1-yloxy]phenyl}-1-methylimidazolidine-2,4-dione], the figure is below 1000 nM; as for `N#Cc1ccc(O[C@@H]2c3ccccc3C[C@H]2N2CCC(CN)CC2)cc1Cl` (racemic) [Example 546, 4-[rac-trans-(1,2)-2-(4-aminomethylpiperidin-1-yl)indan-1-yloxy]-2-chlorobenzonitrile], 1000 to 10000 nM.

Take `Cc1cc(C)c2cccnc2c1O[C@H]1c2ccccc2CC[C@@H]1N1CCC[C@@H](N)C1` (racemic) [Example 78, (R)-1-[rac-trans-(1,2)-1-(5,7-dimethylquinolin-8-yloxy)-1,2,3,4-tetrahydronaphthalen-2-yl]piperidin-3-ylamine]: the inhibition at 10 µM is 20 to 50%. For the molecule `CS(=O)(=O)c1ccc(O[C@H]2c3cc(Cl)cc(Cl)c3C[C@@H]2N2CC[C@H](O)C2)cc1` [Example 198, (S)-1-[trans-(1S,2S)-4,6-dichloro-1-(4-methanesulfonylphenoxy)indan-2-yl]pyrrolidin-3-ol], the IC50 was below 1000 nM.

As to `CS(=O)(=O)c1ccccc1O[C@H]1c2ccccc2CC[C@@H]1N1CCOCC1` (racemic) [Example 506, 4-[rac-trans-(1,2)-1-(2-methanesulfonylphenoxy)-1,2,3,4-tetrahydronaphthalen-2-yl]morpholine], the inhibition at 10 µM was 20 to 50%. Consider `CS(=O)(=O)c1ccc(O[C@H]2c3cc(Cl)cc(Cl)c3C[C@@H]2N2CC[C@@H](O)C2)cc1` [Example 103, (R)-1-[trans-(1S,2S)-4,6-dichloro-1-(4-methanesulfonylphenoxy)indan-2-yl]pyrrolidin-3-ol], for which the IC50 is below 1000 nM.

The values above are taken from US8822449B2, “Substituted aminoindanes and analogs thereof, and the pharmaceutical use thereof” (Sanofi, priority 2008, dated 2014).
